# Test results taken from patent publication US20260034123A1 (Cedilla Therapeutics, Inc., priority 2022, published 2026).
# Experiments:
# CDK2/Cyclin E1 = CDK2/Cyclin E1 (Homo sapiens, UniProt P24941); assay: ADP-Glo Luminescent Kinase Assay (CDK2/E1-37C); format: biochemical; details: 0.18 nM CDK2/Cyclin E1, 100 μM ATP, Histone H1, 37° C.; read-out: ADPGLO (CDK2/E1-37C): IC50
# Summary of the method: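 Activated CDK2/Cyclin E1 (0.18 nM final) preincubated with compound 60 min at 37 °C, then reacted with 100 μM ATP and Histone H1 ([…]) for 90 min at 37 °C in HEPES pH 7.5 buffer. ADP-Glo luminescence normalized to % activity; IC50 from four-parameter fit.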
# Kuramochi cells RB-WT = assay: IncuCyte Kuramochi cell proliferation assay, RB-WT; format: cell-based; details: 72 hours, cell count
# Summary of the method: (§1)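 mApple-H2B-labelled Kuramochi cells were treated with a 10-point, half-log series (top 20 µM) and imaged at 0 and 72 h. Fluorescent nuclei were counted, and the 0–72 h fold change was normalized to DMSO wells. GI50 came from dose-response fits.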
# Kuramochi cells RB-KO = assay: IncuCyte Kuramochi cell proliferation assay, RB-KO; format: cell-based; details: 72 hours, cell count, batch mean
# Summary of the method: as §1
IC50 (CDK2/Cyclin E1),Structure (SMILES),IC50 (Kuramochi cells RB-WT),IC50 (Kuramochi cells RB-KO)
≤ 0.5 µM,"CC1CCC(c2cccc(COC[C@@H]3CN(c4cc(F)c(F)c5ncsc45)CC34CN(C(=O)C(C)(C)C(F)(F)F)C4)c2C(=O)O)CC1 (stereo partly drawn) [I′-47, (S)-2-(((6-(4,5-difluorobenzo[d]thiazol-7-yl)-2-(3,3,3-trifluoro-2,2-dimethylpropanoyl)-2,6-diazaspiro[3.4]octan-8-yl)methoxy)methyl)-6-(4-methylcyclohexyl)benzoic acid]",> 10 µM,> 10 µM
5 to 10 µM,O=C(O)c1c(COC[C@@H]2CN(c3cc(C(F)(F)F)c(F)c4ncsc34)CC23CN(C(=O)C2(C(F)(F)F)CC2)C3)cccc1C1CCC(F)(F)CC1 [I′-48],≤ 0.5 µM,> 10 µM
0.5 to 5 µM,O=C(O)c1c(COC[C@@H]2CN(c3cc(Cl)c(Cl)c4ncsc34)CC23CN(C(=O)C2(C(F)(F)F)CC2)C3)cccc1C1CCC(F)(F)CC1 [I′-49],> 10 µM,> 10 µM
> 10 µM,O=C(O)c1c(COC[C@@H]2CN(c3cc(F)c(F)c4nc(C(F)(F)F)sc34)CC23CN(C(=O)C2(C(F)(F)F)CC2)C3)cccc1C1CCC(F)(F)CC1 [I′-50],> 10 µM,> 10 µM
≤ 0.5 µM,"CC(C)(C(=O)N1CC2(CN(C(=O)c3cnn(Cc4cc(F)c(F)cc4F)c3)C[C@H]2COCc2cccc(C3CCC(F)(F)CC3)c2C(=O)O)C1)C(F)(F)F [I′-52, (S)-2-(4,4-difluorocyclohexyl)-6-(((2-(3,3,3-trifluoro-2,2-dimethylpropanoyl)-6-(1-(2,4,5-trifluorobenzyl)-1H-pyrazole-4-carbonyl)-2,6-diazaspiro[3.4]octan-8-yl)methoxy)methyl)benzoic acid]",0.5 to 5 µM,> 10 µM
≤ 0.5 µM,CC(C)(C(=O)N1CC2(CN(C(=O)c3cnn(Cc4cc(F)c(F)c(F)c4)c3)C[C@H]2COCc2cccc(C3CCC(F)(F)CC3)c2C(=O)O)C1)C(F)(F)F [I′-53],0.5 to 5 µM,> 10 µM
≤ 0.5 µM,"O=C(c1cnn(Cc2ccc(F)cc2)c1)N1C[C@@H](COCc2cccc(C3CCC(F)(F)CC3)c2-c2nn[nH]n2)C2(C1)CN(C(=O)C1(C(F)(F)F)CC1)C2 [I′-54, (S)-(8-(((3-(4,4-difluorocyclohexyl)-2-(2H-tetrazol-5-yl)benzyl)oxy)methyl)-2-(1-(trifluoromethyl)cyclopropane-1-carbonyl)-2,6-diazaspiro[3.4]octan-6-yl)(1-(4-fluorobenzyl)-1H-pyrazol-4-yl)methanone]",5 to 10 µM,> 10 µM
≤ 0.5 µM,"O=C(c1cnn(Cc2ccc(F)cc2)c1)N1CC(COCc2cccc(C3CCC(F)(F)CC3)c2-c2noc(=O)[nH]2)C2(C1)CN(C(=O)C1(C(F)(F)F)CC1)C2 (stereo not drawn) [I′-55, 3-(2-(4,4-difluorocyclohexyl)-6-(((6-(1-(4-fluorobenzyl)-1H-pyrazole-4-carbonyl)-2-(1-(trifluoromethyl)cyclopropane-1-carbonyl)-2,6-diazaspiro[3.4]octan-8-yl)methoxy)methyl)phenyl)-1,2,4-oxadiazol-5(4H)-one]",5 to 10 µM,> 10 µM
> 10 µM,O=C(c1cnn(Cc2ccc(F)cc2)c1)N1CC(COCc2cccc(C3CCC(F)(F)CC3)c2C(=O)C(F)(F)F)C2(C1)CN(C(=O)C1(C(F)(F)F)CC1)C2 (stereo not drawn) [I′-56],0.5 to 5 µM,> 10 µM
≤ 0.5 µM,"NC(=O)c1c(COC[C@@H]2CN(C(=O)c3cnn(Cc4ccccc4C(=O)O)c3)CC23CN(C(=O)C2(C(F)(F)F)CC2)C3)cccc1C1CCC(F)(F)CC1 [I′-57, (S)-2-((4-(8-(((2-carbamoyl-3-(4,4-difluorocyclohexyl)benzyl)oxy)methyl)-2-(1-(trifluoromethyl)cyclopropane-1-carbonyl)-2,6-diazaspiro[3.4]octane-6-carbonyl)-1H-pyrazol-1-yl)methyl)benzoic acid]",5 to 10 µM,0.5 to 5 µM
≤ 0.5 µM,"CC(C)(C(=O)N1CC2(CN(C(=O)c3cnn(Cc4ccc(F)c(F)c4)c3)C[C@H]2COCc2cccc(C3CCC(F)(F)CC3)c2C(=O)O)C1)C(F)(F)F [I′-58, (S)-2-(((6-(1-(3,4-difluorobenzyl)-1H-pyrazole-4-carbonyl)-2-(3,3,3-trifluoro-2,2-dimethylpropanoyl)-2,6-diazaspiro[3.4]octan-8-yl)methoxy)methyl)-6-(4,4-difluorocyclohexyl)benzoic acid]",> 10 µM,> 10 µM
> 10 µM,NC(=O)c1c(COC[C@@H]2CN(c3cc(C(=O)O)cc4ncsc34)CC23CN(C(=O)C2(C(F)(F)F)CC2)C3)cccc1C1CCC(F)(F)CC1 [I′-59],0.5 to 5 µM,> 10 µM
> 10 µM,O=C(O)c1c(COCC2CN(Cc3cnn(Cc4ccc(F)cc4)c3)C(=O)C23CN(C(=O)C2(C(F)(F)F)CC2)C3)cccc1C1CCC(C(F)(F)F)CC1 (stereo not drawn) [I′-60],> 10 µM,> 10 µM
> 10 µM,O=C(O)c1c(COC[C@@H]2CN(c3cc(F)c(F)c4[nH]ccc34)CC23CN(C(=O)C2(C(F)(F)F)CC2)C3)cccc1C1CCC(F)(F)CC1 [I′-61],> 10 µM,> 10 µM
0.5 to 5 µM,O=C(O)c1c(COC[C@H]2CN(c3cc(F)c(F)c4ncsc34)CC23CN(C(=O)C2(C(F)(F)F)CC2)C3)cccc1C1CCC(F)(F)CC1 [I′-62],> 10 µM,> 10 µM
≤ 0.5 µM,"O=C(c1cnn(Cc2ccc(F)cc2)c1)N1CC(COCc2cccc(C3CCC(F)(F)CC3)c2-c2n[nH]c(=O)o2)C2(C1)CN(C(=O)C1(C(F)(F)F)CC1)C2 (stereo not drawn) [I′-63, 5-(2-(4,4-difluorocyclohexyl)-6-(((6-(1-(4-fluorobenzyl)-1H-pyrazole-4-carbonyl)-2-(1-(trifluoromethyl)cyclopropane-1-carbonyl)-2,6-diazaspiro[3.4]octan-8-yl)methoxy)methyl)phenyl)-1,3,4-oxadiazol-2(3H)-one]",> 10 µM,> 10 µM
≤ 0.5 µM,"O=C(O)c1c(COCC2CN(c3ncnc4ncsc34)CC23CN(C(=O)C2(C(F)(F)F)CC2)C3)cccc1C1CCC(F)(F)CC1 (stereo not drawn) [I′-64, 2-(4,4-difluorocyclohexyl)-6-(((6-(thiazolo[4,5-d]pyrimidin-7-yl)-2-(1-(trifluoromethyl)cyclopropane-1-carbonyl)-2,6-diazaspiro[3.4]octan-8-yl)methoxy)methyl)benzoic acid]",0.5 to 5 µM,0.5 to 5 µM
≤ 0.5 µM,"CN(C)S(=O)(=O)NC(=O)c1c(COC[C@@H]2CN(C(=O)c3cnn(Cc4ccc(F)cc4)c3)CC23CN(C(=O)[C@H]2CC2(C)C)C3)cccc1C1CCC(F)(F)CC1 [I′-65, 2-(4,4-difluorocyclohexyl)-6-((((S)-2-((S)-2,2-dimethylcyclopropane-1-carbonyl)-6-(1-(4-fluorobenzyl)-1H-pyrazole-4-carbonyl)-2,6-diazaspiro[3.4]octan-8-yl)methoxy)methyl)-N—(N,N-dimethylsulfamoyl)benzamide]",> 10 µM,> 10 µM
≤ 0.5 µM,"CC(C)(C(=O)N1CC2(CN(C(=O)c3cnn(Cc4ccc(F)cc4)c3)C[C@H]2COCc2cccc(-c3ccc(C(F)(F)F)s3)c2C(=O)O)C1)C(F)(F)F [I′-66, (S)-2-(((6-(1-(4-fluorobenzyl)-1H-pyrazole-4-carbonyl)-2-(3,3,3-trifluoro-2,2-dimethylpropanoyl)-2,6-diazaspiro[3.4]octan-8-yl)methoxy)methyl)-6-(5-(trifluoromethyl)thiophen-2-yl)benzoic acid]",≤ 0.5 µM,> 10 µM
≤ 0.5 µM,COc1ccc(C2CCC(F)(F)CC2)c(C(=O)O)c1COCC1CN(C(=O)c2cnn(Cc3ccc(F)cc3)c2)CC12CN(C(=O)C1(C(F)(F)F)CC1)C2 (stereo not drawn) [I′-67],> 10 µM,> 10 µM
≤ 0.5 µM,"CC(C)(C(=O)N1CC2(CN(C(=O)c3cnn(Cc4ccc(F)cc4)c3)CC2COCc2cc(F)cc(C3CCC(F)(F)CC3)c2C(=O)O)C1)C(F)(F)F (stereo not drawn) [I′-68, 2-(4,4-difluorocyclohexyl)-4-fluoro-6-(((6-(1-(4-fluorobenzyl)-1H-pyrazole-4-carbonyl)-2-(3,3,3-trifluoro-2,2-dimethylpropanoyl)-2,6-diazaspiro[3.4]octan-8-yl)methoxy)methyl)benzoic acid]",5 to 10 µM,> 10 µM
> 10 µM,CC1(C)C[C@@H]1C(=O)N1CC2(CN(C(=O)c3cnn(Cc4ccc(F)cc4)c3)CC2/C=C\Cc2cccc(C3CCC(F)(F)CC3)c2C(=O)O)C1 (stereo partly drawn) [I′-69],5 to 10 µM,> 10 µM
≤ 0.5 µM,"CC1(C)C[C@@H]1C(=O)N1CC2(CN(C(=O)c3cnn(Cc4ccc(F)cc4)c3)CC2COCc2cccc(C3CCC(F)(F)CC3)c2-c2nn[nH]n2)C1 (stereo partly drawn) [I′-70, (8-(((3-(4,4-difluorocyclohexyl)-2-(2H-tetrazol-5-yl)benzyl)oxy)methyl)-2-((S)-2,2-dimethylcyclopropane-1-carbonyl)-2,6-diazaspiro[3.4]octan-6-yl)(1-(4-fluorobenzyl)-1H-pyrazol-4-yl)methanone]",> 10 µM,> 10 µM
≤ 0.5 µM,"CC(C)(C(=O)N1CC2(C1)CN(c1cc(F)c(F)c3ncsc13)C[C@H]2COCc1cccc(C2CCC(F)(F)CC2)c1C(=O)O)C(F)(F)F [I′-71, (S)-2-(((6-(4,5-difluorobenzo[d]thiazol-7-yl)-2-(3,3,3-trifluoro-2,2-dimethylpropanoyl)-2,6-diazaspiro[3.4]octan-8-yl)methoxy)methyl)-6-(4,4-difluorocyclohexyl)benzoic acid]",5 to 10 µM,> 10 µM
